Entries after “also recorded” stand apart in the source; their conditions may differ. Each block holds one molecule with its values, some of them ahead of it. Square brackets hold non-standard residues; d marks the D form. Primed or numbered codes have the meaning given here. Ends that are not written are not given here. * marks the point of attachment. PE = 4-azidoproline (Pz) joined by click reaction (1,2,3-triazole) to NS; Biotin = O=C1N[C@H]2[C@H](CS[C@H]2CCCCC(=O)*)N1; PEG12′ = not defined here
Tests used:
[1] = molecular target: GDNF (Homo sapiens, UniProt P39905)
Description: (§1) SPR measurements were performed using a Biacore T100 system (GE Healthcare). The CM5 sensor chip was primed with HBS-EP+ buffer (10 mM HEPES pH 7.4, 150 mM NaCl, 3.4 mM EDTA, 0.005% P20, GE Healthcare) and was activated using the standard amine-coupling protocol (1:1 mixture of 0.4 M EDC and 0.1M NHS). 0.008 mg/ml of streptavidin solution in 10 mM sodium acetate buffer (Acetate 5.0, GE Healthcare) was conjugated and remaining activated groups were quenched with 1 M ethanolamine solution (pH 8.5). The final amount of streptavidin covalently immobilized on the surface was typically 700 RU. Flow cell 1 (or 3) was used as a reference to subtract nonspecific binding, drift, and the bulk refractive index, while flow cell 2 (or 4) was further immobilized with GAG mimetic agents or natural polysaccharides. […] Immobilized amount is normalized by a molecular weight. For a given affinity measurement, varying amount of protein solutions were successively injected into the flow cells for 240 seconds of contact time and 800 seconds of dissociation time using a flow rate of 50 μL/min at 25° C. Flow cell was regenerated using 2.5 M MgCl2 at 30 μL/min. Association (ka) and dissociation (kd) rate constants were calculated with a 1:1 binding model using Biacore evaluation software, and KD values were calculated from the ratio of kd to ka. Kinetic parameters were obtained by fitting curves to a 1:1 Langmuir model with baseline correction.
(§2) With the non-saccharide glycosaminoglycan mimetics in hand, SPR was employed to facilitate quantitative, real-time kinetic analysis of non-saccharide glycosaminoglycan mimetic binding to GDNF and GFRα1.

[2] = molecular target: GFRα1 (Homo sapiens, UniProt P56159)
Description: as §1, §2

[3] = molecular target: T1, P-selectin (Homo sapiens, UniProt P16109); assay: SPR binding to P-selectin; settings: distributed vs single facial conformation
T1 sequence (P16109 42-830): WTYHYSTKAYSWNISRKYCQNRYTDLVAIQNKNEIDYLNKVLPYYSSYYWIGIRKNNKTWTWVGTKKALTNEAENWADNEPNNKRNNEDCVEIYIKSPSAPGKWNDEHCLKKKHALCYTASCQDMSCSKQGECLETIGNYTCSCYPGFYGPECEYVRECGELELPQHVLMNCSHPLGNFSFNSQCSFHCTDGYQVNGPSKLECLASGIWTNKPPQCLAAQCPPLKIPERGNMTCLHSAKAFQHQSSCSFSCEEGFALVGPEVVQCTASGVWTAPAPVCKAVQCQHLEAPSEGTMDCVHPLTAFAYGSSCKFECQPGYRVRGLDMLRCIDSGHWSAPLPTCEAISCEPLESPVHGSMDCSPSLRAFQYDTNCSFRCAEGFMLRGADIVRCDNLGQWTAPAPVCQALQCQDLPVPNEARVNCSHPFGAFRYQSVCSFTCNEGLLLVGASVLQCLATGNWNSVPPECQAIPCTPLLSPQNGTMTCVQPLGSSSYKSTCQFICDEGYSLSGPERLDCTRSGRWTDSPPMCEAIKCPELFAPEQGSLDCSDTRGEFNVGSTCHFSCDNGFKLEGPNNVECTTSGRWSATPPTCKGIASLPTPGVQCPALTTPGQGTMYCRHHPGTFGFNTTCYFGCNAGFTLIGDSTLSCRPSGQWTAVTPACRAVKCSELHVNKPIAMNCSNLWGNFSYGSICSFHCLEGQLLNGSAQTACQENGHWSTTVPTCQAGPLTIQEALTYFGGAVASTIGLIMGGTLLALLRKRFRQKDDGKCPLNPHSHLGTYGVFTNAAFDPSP
Description: as §1, with “Kinetic parameters were obtained by fitting curves to a 1:1 Langmuir model with baseline correction.” left out

[4] = tested on: Factor Xa; assay: BIOPHEN Heparin Anti-Xa assay in the presence of anti-thrombin; type: biochemical; settings: at concentrations as high as 300 ug/ml, anti-thrombin present
Description: (§3) One common drawback hampering the clinical application of negatively charged glycomimetics is the potentially hazardous tendency to activate anti-thrombin, which in turn severely impairs the ability of blood coagulation factors (e.g. Factor Xa and IIa) in the final common pathway to orchestrate blood coagulation. To verify the safety and clinical potential of the engineered non-saccharide glycomimetics of tunable spatial conformation, the effect of (PE)12-NS and heparin on the activity of blood coagulation factors, Factor Xa and IIa in the presence of anti-thrombin, was assessed. This assessment was performed using BIOPHEN Heparin Anti-Xa and Anti-IIa assays (Aniara) where the inhibitory effect of anti-thrombin on Factor Xa and IIa was determined by the ability of the factors to catalyze the hydrolysis of factor-specific chromogenic substrates. […] The use of spatial conformation to present key chemical motifs toward selectins is therefore specific and independent of other proteins that could lead to undesirable consequences if concomitant enhanced binding were to be seen.

[5] = tested on: Factor IIa; assay: BIOPHEN Heparin Anti-IIa assay in the presence of anti-thrombin; type: biochemical; settings: at concentrations as high as 300 ug/ml, anti-thrombin present
Description: as §3

[6] = tested on: B16F10 murine melanoma cells bound to P-selectin-coated surfaces; assay: Adhesion of calcein-labeled tumor cells to immobilized P-selectin; type: cell-based; settings: B16F10 cells on P-selectin-coated surfaces
Description: As such, it was examined if the strong binding affinity of (PE)12-NS toward P-selectin could translate into inhibition of P-selectin-mediated adhesion of tumor cells. To do so, recombinant P-selectin chimera protein with a Fc region was immobilized on Protein A-coated surfaces. The adhesion of calcein-labeled B16F10 murine melanoma cells to these surfaces in the presence of heparin or (PE)12-NS was then visualized (FIG. 16A) and quantified by fluorescence microplate reader (FIG. 16B).

[7] = tested on: PC12 cells; assay: Neurite outgrowth assay (GDNF-mediated neuritogenesis); settings: 72 h; for effect on neuritogenesis: added to culture media, 20 μM, untreated cells
Description: PC12 cells were maintained in T75 tissue culture flasks in RPMI 1640 medium (ATCC® 30-2001) supplemented with 10% heat-inactivated horse serum (HI-HS, Gibco 26050-088), 5% fetal bovine serum (FBS, Gibco 26170-043) and 1% penicillin/streptomycin (Gibco 15140-122). Stock cultures from liquid nitrogen were grown at 37° C. with 5% CO2 in a humidified chamber for a minimum of 72 hr before experiments. Cells were seeded on 13 mm round glass coverslips (Paul Marienfeld 0111530). The coverslips were pretreated with 65% nitric acid for three days, washed with distilled water, 70% ethanol and 100% ethanol thrice each for 30 minutes with gentle rocking and then dried in a cell culture hood overnight under UV. For cell attachment, the treated coverslips were coated with laminin (25 μg/mL in PBS; Sigma L2020) at 37° C. for 1 hr, washed thrice with PBS, and then placed at the bottom of a 24-well plate for cell seeding. For all experiments, cells were cultured in RPMI 1640 differentiation media containing 1% HI-HS.
PC12 cells were first harvested and incubated in differentiation media or differentiation media supplemented with 30 μM of DPPE-(PE)12-NS for 2 h. After incubation, the cells were centrifuged and rinsed twice with fresh differentiation medium and then seeded onto laminin-coated coverslips at a density of 100 cells/mm^2. After allowing the cells to attach for 1 hr at 37° C., the medium was replaced with fresh differentiation medium supplemented with 200 ng/mL GDNF and 1 μg/mL GFRα1. As additional controls, (PE)12-NS or NS were further added to the supplemented medium to a final concentration of 20 μM for untreated cells. After 72 h, the cells were fixed with 4% paraformaldehyde solution (Tokyo Chemical Industry 30525-89-4 in PBS) for 15 minutes at room temperature and then rinsed with PBS. Bright-field images were taken using an Olympus IX71 Inverted Microscope at 20× magnification under phase contrast. For each condition, 400-500 randomly selected single cells were counted. The percentage of neurite-bearing cells was determined by counting the number of cells with neurites longer than the cell body. Experiments were repeated three times and done in duplicate each time.

[8] = molecular target: recombinant P-selectin chimera protein with a Fc region; assay: cell-based or functional assay
[9] = molecular target: T2, P-selectin; assay: SPR (Biacore T100), biotinylated mimetic on streptavidin chip, selectin injected
T2 chain: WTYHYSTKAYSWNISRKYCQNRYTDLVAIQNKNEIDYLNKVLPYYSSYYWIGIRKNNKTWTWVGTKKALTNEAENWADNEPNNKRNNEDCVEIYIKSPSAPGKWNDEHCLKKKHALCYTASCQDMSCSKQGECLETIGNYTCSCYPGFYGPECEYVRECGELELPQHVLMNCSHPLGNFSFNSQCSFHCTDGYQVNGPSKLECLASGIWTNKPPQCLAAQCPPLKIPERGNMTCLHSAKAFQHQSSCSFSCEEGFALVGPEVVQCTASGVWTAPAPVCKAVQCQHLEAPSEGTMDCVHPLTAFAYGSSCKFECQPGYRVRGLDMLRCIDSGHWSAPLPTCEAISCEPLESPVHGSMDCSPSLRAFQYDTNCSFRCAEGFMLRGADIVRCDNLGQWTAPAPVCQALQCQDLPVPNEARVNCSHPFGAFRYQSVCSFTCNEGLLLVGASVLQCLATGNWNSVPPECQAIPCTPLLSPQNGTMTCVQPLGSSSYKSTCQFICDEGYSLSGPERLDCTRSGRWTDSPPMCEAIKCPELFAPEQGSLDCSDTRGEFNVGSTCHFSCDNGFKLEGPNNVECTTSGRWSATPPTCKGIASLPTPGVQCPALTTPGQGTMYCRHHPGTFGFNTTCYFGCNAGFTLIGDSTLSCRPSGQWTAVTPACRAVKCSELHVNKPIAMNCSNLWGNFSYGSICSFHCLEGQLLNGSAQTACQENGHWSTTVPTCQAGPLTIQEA

[10] = molecular target: GFRα1; assay: SPR (Biacore T100), biotinylated mimetic on streptavidin CM5 chip, protein injected, 1:1 model
[11] = molecular target: T3, GDNF; assay: as above
T3 chain: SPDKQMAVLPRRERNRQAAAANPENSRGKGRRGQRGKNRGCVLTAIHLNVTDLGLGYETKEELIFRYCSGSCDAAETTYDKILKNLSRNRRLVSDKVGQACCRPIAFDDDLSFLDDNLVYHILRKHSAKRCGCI

[12] = GDNF, SPR, 1:1 binding model, 25° C.
[13] = SPR sensorgrams, 0.2-1.0 nM protein
[14] = GFRα1, SPR, 1:1 binding model, 25° C.

Chain of GFRα1 (Homo sapiens, UniProt P56159) (P56159 25-429, species assumed): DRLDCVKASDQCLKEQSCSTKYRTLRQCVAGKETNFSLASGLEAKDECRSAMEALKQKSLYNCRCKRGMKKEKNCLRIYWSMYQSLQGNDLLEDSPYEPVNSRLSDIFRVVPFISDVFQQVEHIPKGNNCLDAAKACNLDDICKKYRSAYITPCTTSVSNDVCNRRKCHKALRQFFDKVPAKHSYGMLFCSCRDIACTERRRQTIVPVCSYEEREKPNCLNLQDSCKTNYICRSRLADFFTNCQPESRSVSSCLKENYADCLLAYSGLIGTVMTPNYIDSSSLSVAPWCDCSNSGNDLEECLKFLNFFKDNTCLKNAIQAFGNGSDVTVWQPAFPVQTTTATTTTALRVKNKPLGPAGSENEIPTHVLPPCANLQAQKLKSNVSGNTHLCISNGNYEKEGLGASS
Chain of GDNF (Homo sapiens, UniProt P39905) (P39905 76-211, species assumed): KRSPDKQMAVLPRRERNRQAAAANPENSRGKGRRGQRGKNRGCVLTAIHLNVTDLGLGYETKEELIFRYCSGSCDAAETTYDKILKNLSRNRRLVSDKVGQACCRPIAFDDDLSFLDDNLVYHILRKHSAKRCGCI

Molecule: COC(=O)[C@@H]1C[C@@H](n2cc(CC(COS(=O)(=O)O)OS(=O)(=O)O)nn2)CN1C(=O)[C@@H]1C[C@@H](n2cc(CC(COS(=O)(=O)O)OS(=O)(=O)O)nn2)CN1C(=O)[C@@H]1C[C@@H](n2cc(CC(COS(=O)(=O)O)OS(=O)(=O)O)nn2)CN1C(=O)[C@@H]1C[C@@H](n2cc(CC(COS(=O)(=O)O)OS(=O)(=O)O)nn2)CN1C(=O)[C@@H]1C[C@@H](n2cc(CC(COS(=O)(=O)O)OS(=O)(=O)O)nn2)CN1C(=O)[C@@H]1C[C@@H](n2cc(CC(COS(=O)(=O)O)OS(=O)(=O)O)nn2)CN1C(=O)[C@@H]1C[C@@H](n2cc(CC(COS(=O)(=O)O)OS(=O)(=O)O)nn2)CN1C(=O)[C@@H]1C[C@@H](n2cc(CC(COS(=O)(=O)O)OS(=O)(=O)O)nn2)CN1C(=O)[C@@H]1C[C@@H](n2cc(CC(COS(=O)(=O)O)OS(=O)(=O)O)nn2)CN1C(=O)[C@@H]1C[C@@H](n2cc(CC(COS(=O)(=O)O)OS(=O)(=O)O)nn2)CN1C(=O)[C@@H]1C[C@@H](n2cc(CC(COS(=O)(=O)O)OS(=O)(=O)O)nn2)CN1C(=O)[C@@H]1C[C@@H](n2cc(CC(COS(=O)(=O)O)OS(=O)(=O)O)nn2)CN1C(=O)CCOCCOCCOCCOCCOCCOCCOCCOCCOCCOCCOCCOCCNC(=O)CCCC[C@@H]1SC[C@@H]2NC(=O)N[C@@H]21 (stereo partly drawn) [(PE)12-NS]
kd [1, 12]: 2.12 (± 0.07) × 10^−3 S^−1 | kα [1, 12]: 6.42 (± 0.28) × 10^5 M^−1S^−1 | binding affinity to GDNF (comparison in words) [1, 13]: far higher binding affinity | kd [2, 14]: 4.9 (± 1.7) × 10^−2 S^−1 | kα [2, 14]: 4.26 (± 0.90) × 10^5 M^−1S^−1 | binding affinity to GFRα1 (comparison in words) [2, 13]: far higher binding affinity | binding affinity to P-selectin (comparison in words) [3]: stronger binding affinity | activity of Factor Xa [4]: remained unaffected | activity of Factor IIa [5]: remained unaffected | concentration from which near-complete inhibition of adhesion is achieved [6]: ≥ 0.6 µg/mL | effect on neuritogenesis ([7]; GDNF and GFRα1): Complete inhibition | effect on neuritogenesis ([7]; GDNF and GFRα1, listed as biotin-(PE)12-NS): completely inhibited neuritogenesis

Molecule: pent-4-yne-1,2-diyl bis(sulfate) [NS]
effect on neuritogenesis ([7]; GDNF and GFRα1): No significant effect; also recorded: no discernable effect

Molecule: DPPE-(PE)12-NS (PPPPPPPPPPPP)
percentage of neurite-bearing cells ([7]; cells pre-incubated with 30 μM for 2 h, 200 ng/mL GDNF and 1 μg/mL GFRα1, control 16%): 45% | neurite length ([7]; cells pre-incubated with 30 μM for 2 h, GDNF and GFRα1): marked increase

IC50 of inhibition of adhesion of calcein-labeled B16F10 murine melanoma cells to immobilized P-selectin [8]: 0.18 µg/mL | near-complete inhibition of adhesion of B16F10 cells to immobilized P-selectin [8]: > 0.6 µg/mL | Kd [9]: 6 nM | Kd [10]: 116 nM | koff [10]: 0.049 s⁻¹ | kon [10]: 426000 M⁻¹ s⁻¹ | Kd [11]: 3.3 nM | koff [11]: 0.00212 s⁻¹ | kon [11]: 642000 M⁻¹ s⁻¹
B1: Biotin-(PE)12-NS (peptide)
peptide: {Biotin-PEG12′}-[PE][PE][PE][PE][PE][PE][PE][PE][PE][PE][PE][PE]
modifications: also: CO2CH3 methyl ester seen in NMR
notes: Non-saccharide glycosaminoglycan mimetic on a polyproline type II helix, with NS on all three faces; The biotinylated form was immobilised on streptavidin for SPR; also called distributed design; distributed conformation

Reference: US20200291079A1, “ENGINEERING STRUCTURALLY DEFINED NON-SACCHARIDE GLYCOSAMINOGLYCAN MIMETICS VIA A POLYPROLINE SCAFFOLD” (AGENCY FOR SCIENCE, TECHNOLOGY AND RESEARCH, priority 2015, published 2020)
